This note sets out measurements from patent US10711249B2, “Method for inducing hepatocytes” (KYOTO UNIVERSITY, priority 2014, dated 2020).

Data set [1] concerns CYP1A1. The data set can be described thus: Drug metabolizing enzyme induction reaction: CYP1A1 mRNA by quantitative PCR. The conditions noted are these: 100 μM omeprazole, 2 days. Format: in vitro ADME, human.
Procedure: A cell population obtained by culturing the cell population obtained in Stage 2 in a Hepatocyte Culture Medium (HCM SingleQuots Kit) supplemented with 20 ng/ml HGF and 20 ng/ml oncostatin M (HGF+OsM) for 8 days; and a cell population obtained by culturing the cell population obtained in Stage 2 in a Hepatocyte Culture Medium (HCM SingleQuots Kit) supplemented with 1 μM methoxamine hydrochloride for 8 days; Panc1 (human pancreatic cancer-derived cell line: Riken Bioresource Center); and HepG2 (human hepatocarcinoma-derived cell line) were used. Each of the cell populations was cultured in a Hepatocyte Culture Medium (HCM SingleQuots Kit) in the presence or absence of 100 μM omeprazole (Sigma) for 2 days, and thereafter, CYP1A1 mRNA expression level was measured by quantitative PCR. […] The amount of CYP1A1 mRNA relative to β actin mRNA was obtained and used as relative expression level of CYP1A1.
Data set [2] has as its system adrenergic α1 receptor. The data set can be described thus: Mechanism study: albumin secretion with adrenergic receptor blocking agents added with methoxamine in Stage 3. Format: cell-based, human. The note with it: 10 μM blocking agent added with methoxamine in Stage 3, 8 days.
Data set [3] concerns hepatoblasts induced from human iPS cells 201B6. The data set is described as follows: Induction of albumin-positive cells in Stage 3 (anti-albumin immunostaining, albumin mRNA by quantitative PCR). Format: cell-based. The method, then:
The effects of analogous compounds (adrenergic receptor agonist, in particular, an agent having α receptor stimulating action) serving as an alternative compound for a methoxamine hydrochloride were checked. In Stage 3 as mentioned above, cells were cultured in a Hepatocyte Culture Medium (HCM SingleQuots Kit) supplemented with 1 μM etilefrine, phenylephrine or methoxamine hydrochloride for 8 days. The content ratio of albumin-positive cells and the mRNA expression level of albumin were measured in the same manner as above. […] Furthermore, the amount of albumin secreted from the obtained cell population into the culture mediumliquid was measured by ELISA.

The test system of data set [4] is hepatoblasts induced from human iPS cells. The data set can be described thus: Albumin secreted into the culture medium measured by ELISA. Format: cell-based. The note with it: 1 μM in Stage 3, 8 days.
Procedure: The effects of analogous compounds (adrenergic receptor agonist, in particular, an agent having α receptor stimulating action) serving as an alternative compound for a methoxamine hydrochloride were checked. […] Furthermore, the amount of albumin secreted from the obtained cell population into the culture mediumliquid was measured by ELISA.
Data set [5] relates to cells obtained in Stage 2 (from human iPS cells). The data set can be described thus: ICG (indocyanine green) uptake by induced cells. Format: cell-based. The conditions noted are these: agent in Stage 3 for 8 days (methoxamine hydrochloride 1 μM; HGF and oncostatin M 20 ng/ml each); 1 mg/ml ICG, 1 hour. On the procedure: (§1) 1 mg/ml ICG (indocyanine green) (Sigma) was added to each cell population and cultured for 1 hour. Then, ICG uptake by the cells was observed.

Data set [6] shares this test system. The data set can be described thus: Oil Red staining of induced cells. Format: cell-based. The conditions noted are these: agent in Stage 3 for 8 days. On the procedure: as §1
The cells induced in the presence of HGF+OsM, methoxamine hydrochloride or DMSO and HepG2 were stained with Oil Red.

Data set [7] has the same test system. The data set is described as follows: PAS staining of induced cells (glycogen accumulation). Format: cell-based. The note with it: agent in Stage 3 for 8 days. On the procedure:
as §1
The cells induced in the presence of HGF+OsM, methoxamine hydrochloride or DMSO, and HepG2 were stained with PAS.

Data set [8] relates to hepatocytes induced from human iPS cells. The data set can be described thus: Gene expression profile by RNA sequencing analysis (PCA, liver marker heat map). Format: cell-based. The text has this:
The hepatocytes induced from human iPS cells were subjected to RNA sequencing analysis and gene expression profiles were compared.

For data set [9], the system named is Mouse ES cells (D3 cell line). The data set can be described thus: Mouse ES cell-derived cells immunostained with anti-albumin, anti-Cyp3a4 and anti-C/ebpβ antibodies. Format: cell-based. The note with it: Stage 3, 8 days; compared with HGF+OsM. The method, then: The content ratio of Sox17-positive cells was determined.
The content ratio of AFP-positive cells was determined.
The cells were cultured for 8 days.
The cells cultured in the medium containing methoxamine in Stage 3 for 8 days, the cells cultured in the medium containing HGF+OsM (positive control) in the same manner as above and also the cells cultured in the medium containing DMSO (negative control) were used. These cells were immuno-stained with an anti-albumin antibody (Albumin), anti-Cyp3a4 antibody and anti-C/ebpβ antibody.

Data set [10] relates to CYP3A4. The data set is described as follows: CYP3A4 expression in induced cells (immunostaining and quantitative PCR). On the procedure: A cell population obtained by culturing the cells obtained in Stage 2 in a Hepatocyte Culture Medium (HCM SingleQuots Kit) containing 20 ng/ml HGF and 20 ng/ml oncostatin M (HGF+OsM) for 8 days; a cell population obtained by culturing the cells obtained in Stage 2 in a Hepatocyte Culture Medium (HCM SingleQuots Kit) supplemented with 1 μM methoxamine hydrochloride for 8 days; a cell population obtained by culturing the cells obtained in Stage 2 in a Hepatocyte Culture Medium (HCM SingleQuots Kit) supplemented with 1 μM pregnenolone for 8 days; and a cell population obtained by culturing the cells obtained in Stage 2 in a Hepatocyte Culture Medium (HCM SingleQuots Kit) supplemented with DMSO for 8 days were immuno-stained with a CYP3A4 antibody (Proteintech Group) (FIG. 9A). […] CYP3A4mRNA expression levels were measured in these cell populations by quantitative PCR in the same manner as above.

In data set [11] the test system is Mouse ES cells (D3 cell line). The data set is described as follows: Induction of hepatocytes from mouse ES cells: expression of Tat, Cyp3a11, Cyp3a13. The conditions noted are these: 1 μM in Stage 3, 8 days; compared with HGF+OsM.
Procedure: In order to remove feeder cells, the cells were seeded in a plate coated with gelatin. Ten to twenty minutes later, the supernatant containing the ES cells and the culture medium was collected, then the cells were seeded in a 24-well plate coated with Matrigel basement Membrance Matrix Growth Factor Reduced (BD) such that the cells were placed in a rate of 2.0×10^4-8.0×10^4 cells/well. The cells were cultured in RPMI1640 supplemented with 1 μM CHIR99021 (Axon Medchem), 100 ng/ml Activin A (R&D systems), 2% B27 (Invitrogen) and 0.5% PenStrep (Invitrogen) for one day (Stage 1-1) (day 1).
Subsequently, 0.5 mM NaB (Sigma) was added to the medium and the cells were cultured for one day (Stage 1-2) (day 2). The medium was removed and the cells were cultured in RPMI1640 supplemented with 0.5 mM NaB (Sigma), 1 μM CHIR99021 (Axon Medchem), 100 ng/ml Activin A (R&D systems), 2% B27 (Invitrogen) and 0.5% PenStrep (Invitrogen) for 4 days (Stage 1-3) (day 6). The cells obtained in the above steps were stained with a Sox17 antibody. The content ratio of Sox17-positive cells was determined.
After completion of Stage 1, the medium was exchanged with Knockout™ DMEM (Invitrogen) supplemented with 1% DMSO, 20% KSR (Invitrogen), 1 mM L-glutamic acid, 1% NEAA (Invitrogen), 0.1 mM β mercaptoethanol, 0.5 mM NaB (Sigma) and 0.5% PenStrep. […] The content ratio of AFP-positive cells was determined. […]

Where a name gives a salt, the structure may show the parent alone. A value given as a limit tells only on which side of the number the result lay.

Consider `COc1ccc2[nH]c([S+]([O-])Cc3ncc(C)c(OC)c3C)nc2c1` (centres unmarked) [omeprazole], for which the “CYP1A1 mRNA expression level” value in data set [1] (HepG2 cells), in [1] (cell population induced with 1 μM methoxamine hydrochloride in Stage 3) and in [1] (cell population induced with HGF+OsM in Stage 3) was “expression of CYP1A1 was induced” throughout.

As to `COc1cc2nc(N3CCN(C(=O)C4COc5ccccc5O4)CC3)nc(N)c2cc1OC` (centres unmarked) [doxazosin], the “volume of albumin secretion” value in data set [2] is recorded as “decreased”.

As to `COc1ccc(OC)c(C(O)C(C)N)c1` (centres unmarked) [methoxamine hydrochloride], the “concentration at which albumin-expressing cells were obtained (albumin mRNA, quantitative PCR)” value in data set [3] (Stage 3, 8 days, tested 0 M, 1 fM, 1 pM, 1 nM, 1 μM, 50 μM, 100 μM) is given as ≥ 1 fM. In data set [4], the “amount of albumin secreted into the culture medium (ELISA)” value (shortened to “amount”) is “cells having an ability to secrete albumin can be induced”. Also, the “ICG uptake by the induced cells” value in data set [5] was “ICG uptake was observed”. Also, the “Oil Red staining (lipid drops) of the induced cells” value in data set [6] is given as “accumulation of lipid drops was observed in some of the cells”. Moreover, the “PAS staining (glycogen) of the induced cells” value in [7] is “stained red-purple”. For the same molecule, the “gene expression profile compared with hepatocytes induced by HGF and OsM” value in data set [8] was “substantially the same gene expression profile”. Further, the “immunostaining for Albumin, Cyp3a4 and C/ebpβ” value in data set [9] was “very similar expression was observed”.

In the case of `CC(=O)[C@H]1CC[C@H]2[C@@H]3CC=C4C[C@@H](O)CC[C@]4(C)[C@H]3CC[C@]12C` [pregnenolone], the “induction of albumin-positive cells at two concentrations” value in [3] (pregnenolone 150 nM and 1 μM in Stage 3) is “the same results were obtained”. Moreover, the “CYP3A4 immunostaining of the induced cells” value in [10] (agent in Stage 3 for 8 days (1 μM; HGF and oncostatin M 20 ng/ml each)) is listed as “Cells expressing CYP3A4 were found”. The “CYP3A4 mRNA expression level (quantitative PCR)” value in [10] (agent in Stage 3 for 8 days, relative to cells induced with DMSO) is “intensively expressed”. The “expression of Tat, Cyp3a11 and Cyp3a13” value in data set [11] is listed as “express the same drug metabolizing enzymes as in the case where HGF+OsM was used”.

As for `CCNCC(O)c1cccc(O)c1` (centres unmarked) [etilefrine], the “amount” value in [4] is recorded as “cells having an ability to secrete albumin can be induced”.

As for `CNC[C@H](O)c1cccc(O)c1` [phenylephrine], the “amount” value in data set [4] is reported as “cells having an ability to secrete albumin can be induced”.
